In patent US20160209428A1, “DIAGNOSTIC AND PREDICTIVE METABOLITE PATTERNS FOR DISORDERS AFFECTING THE BRAIN AND NERVOUS SYSTEM” (THE REGENTS OF THE UNIVERSITY OF CALIFORNIA, priority 2013, published 2016):

Key:
[1] = tested on: Fragile X (Fmr1) knockout mouse; assay: Plasma metabolomics after weekly suramin or saline, Fragile X model; assay type: in vivo; details: for Suramin Treatment Effect (KO-Sur/KO-Sal): Fragile X KO
Protocol: Samples were analyzed on an AB SCIEX QTRAP 5500 triple quadrupole mass spectrometer equipped with a Turbo V electrospray ionization (ESI) source, Shimadzu LC-20A UHPLC system, and a PAL CTC autosampler (AB ACIEX, Framingham, Mass., USA). […] Plasma was separated by centrifugation at 600 g×5 minutes at 20° C. within one hour of collection. Fresh lithium-heparin plasma was transferred to labeled tubes for storage at −80° C. for analysis. Typically 45 μl of plasma was thawed on ice and transferred to a 1.7 ml Eppendorf tube. Two and one-half (2.5) μl of a cocktail containing 35 commercial stable isotope internal standards, and 2.5 μl of 310 stable isotope internal standards that were custom-synthesized in E. coli and S. cerevisiae by metabolic labeling with ^13C-glucose and ^13C-bicarbonate, were added, mixed, and incubated for 10 min at room temperature to permit small molecules and vitamins in the internal standards to associate with plasma binding proteins. Macromolecules (protein, DNA, RNA, etc.) were precipitated by extraction with 4 volumes (200 μl) of cold (−20° C.), acetonitrile:methanol (50:50) (LCMS grade, Cat#LC015-2.5 and GC230-4, Burdick & Jackson, Honeywell), vortexed vigorously, and incubated on crushed ice for 10 min, then removed by centrifugation at 16,000 g×10 min at 4° C. The supernatants containing the extracted metabolites and internal standards in the resulting 40:40:20 solvent mix of acetonitrile:methanol:water were transferred to labeled cryotubes and stored at −80° C. for LC-MS/MS (liquid chromatography-tandem mass spectrometry) analysis.
LC-MS/MS analysis was performed by multiple reaction monitoring (MRM) under Analyst v1.6.1 (AB SCIEX, Framingham, Mass., USA) software control in both negative and positive mode with rapid polarity switching (50 ms). Nitrogen was used for curtain gas (set to 30), collision gas (set to high), ion source gas 1 and 2 (set to 35). The source temperature was 500° C. Spray voltage was set to −4500 V in negative mode and 5500 V in positive mode. The values for Q1 and Q3 mass-to-charge ratios (m/z), declustering potential (DP), entrance potential (EP), collision energy (CE), and collision cell exit potential (CXP) were determined and optimized for each MRM for each metabolite. Ten microliters of extract was injected by PAL CTC autosampler into a 250 mm×2 mm, 5 μm Luna NH2 aminopropyl HPLC column (Phenomenex, Torrance, Calif., USA) held at 25° C. for chromatographic separation. […] The flow rate was 300 μl/min. All the samples were kept at 4° C. during analysis. The chromatographic peaks were identified using MultiQuant (v3.0, AB SCIEX), confirmed by manual inspection, and the peak areas integrated. The median of the peak area of stable isotope internal standards was calculated and used for the normalization of metabolites concentration across the samples and batches. Prior to multivariate and univariate analysis, the data were log-transformed.
A rendering of mammalian intermediary metabolism was constructed in Cytoscape v 3.1.1 (see, e.g., [http://]www.cytoscape.org/). […] Nodes in the Cytoscape network represent metabolites within the pathways and have been colored according to the Z-score. The Z-score was computed as the arithmetic difference between the mean concentration of each metabolite in the KO-Sur treatment group and the KO-Sal control group, divided by the standard deviation in the controls. Node colors were arranged on a red-green color scale with green representing −2.00 Z-score, red representing +2.00 Z-score, and with a zero (0) Z-score represented as white.
Group means and standard error of the means (SEM) are reported. Behavioral data were analyzed by two-way ANOVA and one-way ANOVAs (GraphPad Prism 5.0d, GraphPad Software Inc., La Jolla, Calif., USA, or Stata/SE v12.1, StataCorp, College Station, Tex., USA). Pair-wise post hoc testing was performed by the method of Tukey or Newman-Keuls. Significance was set at p<0.05.

[2] = mice, after a single dose; cited from earlier work

## Cc1ccc(C(=O)Nc2ccc(S(=O)(=O)O)c3cc(S(=O)(=O)O)cc(S(=O)(=O)O)c23)cc1NC(=O)c1cccc(NC(=O)Nc2cccc(C(=O)Nc3cc(C(=O)Nc4ccc(S(=O)(=O)O)c5cc(S(=O)(=O)O)cc(S(=O)(=O)O)c45)ccc3C)c2)c1 [Suramin, suramin]
[1]; Bile Salt Metabolism, plasma
  Suramin Treatment Effect (KO-Sur/KO-Sal): Increased
[1]; Branch Chain Amino Acid Metabolism, plasma
  Suramin Treatment Effect (KO-Sur/KO-Sal): Increased
[1]; Cardiolipin Metabolism, plasma
  Suramin Treatment Effect (KO-Sur/KO-Sal): Decreased
[1]; Cholesterol, Cortisol, Non-Gonadal Steroid Metabolism, plasma
  Suramin Treatment Effect (KO-Sur/KO-Sal): 2/2 Increased
[1]; Eicosanoid and Resolvin Metabolism, plasma
  Suramin Treatment Effect (KO-Sur/KO-Sal): 4/6 Increased
[1]; Fatty Acid Oxidation and Synthesis, plasma
  Suramin Treatment Effect (KO-Sur/KO-Sal): 9/9 Decreased
[1]; Ganglioside Metabolism, plasma
  Suramin Treatment Effect (KO-Sur/KO-Sal): 6/6 Increased
[1]; Glycolysis and Gluconeogenesis, plasma
  Suramin Treatment Effect (KO-Sur/KO-Sal): 2/2 Decreased
[1]; Isoleucine, Valine, Threonine, or Methionine Metabolism, plasma
  Suramin Treatment Effect (KO-Sur/KO-Sal): Increased
[1]; Krebs Cycle, plasma
  Suramin Treatment Effect (KO-Sur/KO-Sal): Increased
[1]; Microbiome Metabolism, plasma
  Suramin Treatment Effect (KO-Sur/KO-Sal): 2/3 Decreased
[1]; Nitric Oxide, Superoxide, Peroxide Metabolism, plasma
  Suramin Treatment Effect (KO-Sur/KO-Sal): Increased
[1]; Pentose Phosphate, Gluconate Metabolism, plasma
  Suramin Treatment Effect (KO-Sur/KO-Sal): Increased
[1]; Phospholipid Metabolism, plasma
  Suramin Treatment Effect (KO-Sur/KO-Sal): 6/6 Increased
[1]; Purine Metabolism, plasma metabolites with VIP >=1.5, weekly suramin vs saline
  Suramin Treatment Effect (KO-Sur/KO-Sal): 4/5 Decreased
[1]; Pyrimidine Metabolism, plasma
  Suramin Treatment Effect (KO-Sur/KO-Sal): Decreased
[1]; SAM, SAH, Methionine, Cysteine, Glutathione Metabolism, plasma
  Suramin Treatment Effect (KO-Sur/KO-Sal): 3/3 Increased
[1]; Sphingolipid Metabolism, plasma
  Suramin Treatment Effect (KO-Sur/KO-Sal): 3/5 Decreased
[1]; Vitamin B3 (Niacin, NAD+) Metabolism, plasma
  Suramin Treatment Effect (KO-Sur/KO-Sal): 1/2 Increased
[1]; Vitamin B6 (Pyridoxine) Metabolism, plasma
  Suramin Treatment Effect (KO-Sur/KO-Sal): Increased
[1]; all 20 of 60 Pathways Dysregulated, top 58 metabolites, plasma
  Suramin Treatment Effect (KO-Sur/KO-Sal): 33/58 Increased
[1]; plasma, Fmr1 KO mice, suramin treatment
  acyl-carnitine species with generalized decrease: 9 of 9
[1]; plasma, Fmr1 KO mice, weekly suramin
  biochemical pathways with pharmacometabolomic changes: 20 of 60
[2]
  plasma half-life: 1 week
